Measurements as given in patent publication US20060014709A1, “Drug or cosmetic” (priority 2002, published 2006).
Where two headings read alike, the source gives them in different places.

Tested on: human peripheral blood T lymphocytes / cytotoxic macrophages
Assay type: cell-based
Description: Another embodiment of the method for screening a compound which can prevent, mitigate or treat renal glomerular lesions, lesions of pancreatic islets of Langerhans or epidermal lesions include a method for screening a compound in the presence of which a number of produced cytotoxic macrophages is decreased, comprising the steps of (i) inducing cytotoxic macrophages by cultivating human peripheral blood mononuclear cells in RPMI 1640 medium in the presence of lipopolysaccharide and human AB type serum; (ii) at the same time, inducing unfractionated T lymphocytes by cultivating human peripheral blood unfractionated T lymphocytes with or without lipopolysaccharide in the presence of the test compound; (iii) bringing the cytotoxic macrophages obtained in (i) into contact with monolayered autologous erythrocytes in the presence of the unfractionated T lymphocytes obtained in (ii), and measuring a number of produced cytotoxic macrophages; and (iv) comparing with the number of generated cytotoxic macrophages in the absence of the test compound (for convenience, referred to as screening method C).
(a) Induction of cytotoxic macrophages is described below. To 2×10^6PBMC floated on RPMI1640 medium containing human normal serum of type AB, 2 mM of L-glutamine and 5 μg/mL of gentamicin, LPS is added so as to make a concentration 80 μg/mL, and the PBMC is cultivated for 6 days at 37° C. under 5% CO2-95% air to induce cytotoxic macrophages. The PBMC is obtained similarly as in the screening method A. The induced cytotoxic macrophages are recovered from the medium. In the recovering, a known method may be used, including a method of collecting adhered materials with a rubber-policeman (rubber spatula). Then, the recovered cytotoxic macrophages may be washed. In washing, a Hanks solution with about 5 μg/mL of gentamicin is preferably used.
(b) Induction of unfractionated T lymphocytes is described below. First, human peripheral blood unfractionated T lymphocytes is separated as described below. As described in the screening method A, to a PBMC fraction separated by a specific gravity centrifugal method was added sheep erythrocytes treated with neuraminidase and reacted for 20 minutes at 37° C. This solution is gently added to a tube in which Percolls of discontinuous specific gravities are layered, and centrifuged at 400×g for 20 minutes at room temperature. In the layered Percolls of discontinuous specific gravities, fractions of rosetted T lymphocytes and monocytes floating on a layer of not less than d=1.091 are collected respectively. To the fraction of rosetted T lymphocytes is added ammonium chloride to hemolyze the sheep erythrocyte and a fraction of T lymphocytes is obtained. The fraction of monocytes obtained at the same time is washed. […]

O=C1CC[C@@](Sc2ccc(Cl)cc2)(C(=O)OCc2ccccc2)O1 (stereo in doubt) [compound (III-1), 2-(4-chlorophenyl)thio-5-oxo-2-tetrahydrofurancarboxylic acid benzyl ester]
induction of regulatory CD2^−CD4^+ T lymphocytes (in words): induces regulatory CD2^−CD4^+ T lymphocytes | Inhibition rate (%) of SPFC positive cells versus T lymphocytes treated with solvent (T lymphocytes treated with 0.1 μg/ml of compound): 69.2% | Inhibition rate (%) of SPFC positive cells versus T lymphocytes treated with solvent (T lymphocytes treated with 1 μg/ml of compound): 53.8% | Inhibition rate (%) of SPFC positive cells versus T lymphocytes treated with solvent (T lymphocytes treated with 10 μg/ml of compound): 92.3%
